# Experimental data as given in patent US10597388B2, “Pyridazinone herbicides” (FMC CORPORATION, priority 2014, dated 2020).
# Tests used:
# Format in all cases: in vivo
# [1] = tested on: ragweed (common ragweed, Ambrosia elatior); assay: Test C greenhouse herbicide test, pre- and postemergence
# How it was run: (§1)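 Two application timings: at sowing into a soil/sand blend, and on 2–18 cm seedlings in peat-vermiculite potting mix. A non-phytotoxic, surfactant-containing solvent carried the compounds. Plants were compared with controls and rated visually on 0–100 after 13–15 d.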
# [2] = tested on: soybean (Glycine max); assay: as above
# How it was run: as §1
# [3] = tested on: oilseed rape (Brassica napus); assay: as above
# How it was run: as §1
# [4] = tested on: galium (catchweed bedstraw, Galium aparine); assay: as above
# How it was run: as §1
# [5] = tested on: waterhemp (common waterhemp, Amaranthus rudis); assay: as above
# How it was run: as §1
# [6] = tested on: wheat (winter wheat, Triticum aestivum); assay: as above
# How it was run: as §1
# [7] = tested on: blackgrass (Alopecurus myosuroides); assay: as above
# How it was run: as §1
# [8] = tested on: corn (Zea mays); assay: as above
# How it was run: as §1
# [9] = tested on: barnyardgrass (Echinochloa crus-galli); assay: as above
# How it was run: as §1
# [10] = tested on: pigweed (Amaranthus retroflexus); assay: as above
# How it was run: as §1
# [11] = tested on: velvetleaf (Abutilon theophrasti); assay: as above
# How it was run: as §1
# [12] = tested on: foxtail, giant (giant foxtail, Setaria faberii); assay: as above
# How it was run: as §1
# [13] = tested on: crabgrass, large (large crabgrass, Digitaria sanguinalis); assay: as above
# How it was run: as §1
# [14] = tested on: morningglory (Ipomoea coccinea); assay: as above
# How it was run: as §1
# [15] = tested on: johnsongrass (Sorghum halepense); assay: as above
# How it was run: as §1
# [16] = tested on: oat, wild (wild oat, Avena fatua); assay: Test C greenhouse herbicide test, postemergence
# How it was run: (§2)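 Greenhouse postemergence spray on plants 2–18 cm tall; response judged visually after 13–15 d relative to untreated controls using a 0 (none) to 100 (full control) scale.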
# [17] = tested on: kochia (Kochia scoparia); assay: Test C greenhouse herbicide test, postemergence
# How it was run: as §2
# [18] = Postemergence, 31 g ai/ha, scale 0 to 100 (0 no effect, 100 complete control)
# [19] = Postemergence, 62 g ai/ha, 0 to 100 scale (0 no effect, 100 complete control)
# [20] = Postemergence, 250 g ai/ha, scale 0 to 100, 0 no effect, 100 complete control, 13 to 15 d
# [21] = Preemergence, 31 g ai/ha, scale 0 to 100, 0 is no effect, 100 is complete control
# [22] = Preemergence, 62 g ai/ha, scale 0 to 100, 0 is no effect, 100 is complete control
# [23] = Preemergence, 125 g ai/ha, scale 0 to 100, 0 is no effect, 100 is complete control
# [24] = Preemergence, 250 g ai/ha, scale 0 to 100 (0 no effect, 100 complete control)
# [25] = postemergence, 125 g ai/ha, scale 0 to 100, 0 no effect, 100 complete control
structure (smiles),measurement,setting,value
CC(=O)Oc1c(Br)nn(C)c(=O)c1-c1c(C)ccc2ccccc12 [Compound 129],"Plant response rating, Ragweed",[1]; [18],90
same,Ragweed plant response rating,[1]; [19],90
same,"Plant response rating, Ragweed",[1]; [20],95
same,"Plant response rating, Ragweed",[1]; [21],70
same,"Plant response rating, Ragweed",[1]; [22],85
same,"Plant response rating, Ragweed",[1]; [23],95
same,Ragweed plant response rating,[1]; [24],95
same,Ragweed plant response rating,[1]; [25],95
same,"Plant response rating, Soybean",[2]; [18],0
same,Soybean plant response rating,[2]; [19],10
same,"Plant response rating, Soybean",[2]; [20],25
same,"Plant response rating, Soybean",[2]; [21],0
same,"Plant response rating, Soybean",[2]; [22],0
same,"Plant response rating, Soybean",[2]; [23],5
same,Soybean plant response rating,[2]; [24],20
same,Soybean plant response rating,[2]; [25],20
same,"Plant response rating, Oilseed Rape",[3]; [18],0
same,Oilseed Rape plant response rating,[3]; [19],0
same,"Plant response rating, Oilseed Rape",[3]; [20],5
same,"Plant response rating, Oilseed Rape",[3]; [21],5
same,"Plant response rating, Oilseed Rape",[3]; [22],50
same,"Plant response rating, Oilseed Rape",[3]; [23],90
same,Oilseed Rape plant response rating,[3]; [24],90
same,Oilseed Rape plant response rating,[3]; [25],5
same,"Plant response rating, Galium",[4]; [18],95
same,Galium plant response rating,[4]; [19],100
same,"Plant response rating, Galium",[4]; [20],100
same,"Plant response rating, Galium",[4]; [21],95
same,"Plant response rating, Galium",[4]; [22],98
same,"Plant response rating, Galium",[4]; [23],100
same,Galium plant response rating,[4]; [24],98
same,Galium plant response rating,[4]; [25],100
same,"Plant response rating, Waterhemp",[5]; [18],75
same,Waterhemp plant response rating,[5]; [19],70
same,"Plant response rating, Waterhemp",[5]; [20],98
same,"Plant response rating, Waterhemp",[5]; [21],90
same,"Plant response rating, Waterhemp",[5]; [22],95
same,"Plant response rating, Waterhemp",[5]; [23],100
same,Waterhemp plant response rating,[5]; [24],100
same,Waterhemp plant response rating,[5]; [25],85
same,"Plant response rating, Wheat",[6]; [18],10
same,Wheat plant response rating,[6]; [19],35
same,"Plant response rating, Wheat",[6]; [20],55
same,"Plant response rating, Wheat",[6]; [21],35
same,"Plant response rating, Wheat",[6]; [22],50
same,"Plant response rating, Wheat",[6]; [23],55
same,Wheat plant response rating,[6]; [24],85
same,Wheat plant response rating,[6]; [25],40
same,"Plant response rating, Blackgrass",[7]; [18],35
same,Blackgrass plant response rating,[7]; [19],40
same,"Plant response rating, Blackgrass",[7]; [20],80
same,"Plant response rating, Blackgrass",[7]; [21],5
same,"Plant response rating, Blackgrass",[7]; [22],30
same,"Plant response rating, Blackgrass",[7]; [23],70
same,Blackgrass plant response rating,[7]; [24],80
same,Blackgrass plant response rating,[7]; [25],60
same,"Plant response rating, Corn",[8]; [18],0
same,Corn plant response rating,[8]; [19],20
same,"Plant response rating, Corn",[8]; [20],30
same,"Plant response rating, Corn",[8]; [21],0
same,"Plant response rating, Corn",[8]; [22],5
same,"Plant response rating, Corn",[8]; [23],15
same,Corn plant response rating,[8]; [24],40
same,Corn plant response rating,[8]; [25],30
same,"Plant response rating, Barnyardgrass",[9]; [18],50
same,Barnyardgrass plant response rating,[9]; [19],65
same,"Plant response rating, Barnyardgrass","[9]; Postemergence, 125 g ai/ha, scale 0 to 100, 0 is no effect, 100 is complete control",70
same,"Plant response rating, Barnyardgrass",[9]; [20],85
same,"Plant response rating, Barnyardgrass",[9]; [21],15
same,"Plant response rating, Barnyardgrass",[9]; [22],70
same,"Plant response rating, Barnyardgrass",[9]; [23],100
same,Barnyardgrass plant response rating,[9]; [24],90
same,"Plant response rating, Pigweed",[10]; [18],95
same,Pigweed plant response rating,[10]; [19],95
same,"Plant response rating, Pigweed",[10]; [20],98
same,"Plant response rating, Pigweed",[10]; [21],100
same,"Plant response rating, Pigweed",[10]; [22],98
same,"Plant response rating, Pigweed",[10]; [23],98
same,Pigweed plant response rating,[10]; [24],100
same,Pigweed plant response rating,[10]; [25],98
same,"Plant response rating, Velvetleaf",[11]; [18],85
same,Velvetleaf plant response rating,[11]; [19],95
same,"Plant response rating, Velvetleaf",[11]; [20],100
same,"Plant response rating, Velvetleaf",[11]; [21],70
same,"Plant response rating, Velvetleaf",[11]; [22],85
same,"Plant response rating, Velvetleaf",[11]; [23],98
same,Velvetleaf plant response rating,[11]; [24],98
same,Velvetleaf plant response rating,[11]; [25],95
same,"Plant response rating, Foxtail, Giant",[12]; [18],60
same,"Foxtail, Giant plant response rating",[12]; [19],75
same,"Plant response rating, Foxtail, Giant",[12]; [20],95
same,"Plant response rating, Foxtail, Giant",[12]; [21],85
same,"Plant response rating, Foxtail, Giant",[12]; [22],90
same,"Plant response rating, Foxtail, Giant",[12]; [23],95
same,"Foxtail, Giant plant response rating",[12]; [24],98
same,"Foxtail, Giant plant response rating",[12]; [25],85
same,"Plant response rating, Crabgrass, Large",[13]; [18],20
same,"Crabgrass, Large plant response rating",[13]; [19],30
same,"Plant response rating, Crabgrass, Large",[13]; [20],60
same,"Plant response rating, Crabgrass, Large",[13]; [21],5
same,"Plant response rating, Crabgrass, Large",[13]; [22],25
same,"Plant response rating, Crabgrass, Large",[13]; [23],75
same,"Crabgrass, Large plant response rating",[13]; [24],85
same,"Crabgrass, Large plant response rating",[13]; [25],35
same,"Plant response rating, Morningglory",[14]; [18],98
same,Morningglory plant response rating,[14]; [19],100
same,"Plant response rating, Morningglory",[14]; [20],100
same,"Plant response rating, Morningglory",[14]; [21],85
same,"Plant response rating, Morningglory",[14]; [22],90
same,"Plant response rating, Morningglory",[14]; [23],90
same,Morningglory plant response rating,[14]; [24],98
same,Morningglory plant response rating,[14]; [25],100
same,"Plant response rating, Johnsongrass",[15]; [18],10
same,Johnsongrass plant response rating,[15]; [19],15
same,"Plant response rating, Johnsongrass",[15]; [20],25
same,"Plant response rating, Johnsongrass",[15]; [21],5
same,"Plant response rating, Johnsongrass",[15]; [22],5
same,"Plant response rating, Johnsongrass",[15]; [23],10
same,Johnsongrass plant response rating,[15]; [24],25
same,Johnsongrass plant response rating,[15]; [25],15
same,"Plant response rating, Oat, Wild",[16]; [18],85
same,"Oat, Wild plant response rating",[16]; [19],90
same,"Plant response rating, Oat, Wild",[16]; [20],98
same,"Oat, Wild plant response rating",[16]; [25],100
same,"Plant response rating, Kochia",[17]; [18],50
same,Kochia plant response rating,[17]; [19],60
same,"Plant response rating, Kochia",[17]; [20],95
same,Kochia plant response rating,[17]; [25],90
